In brackets after ≈: the same amount, converted by molar mass. Activity calls are given as the source filed them. No cut-off for these calls is given here.
What was measured:
Pseudomonas aeruginosa = experiment: Antibacterial activity against Pseudomonas aeruginosa ATCC 27853 by broth microdilution method; type: functional
Staphylococcus aureus [1] = experiment: Antibacterial activity against Staphylococcus aureus ATCC 29213 by broth microdilution method; type: functional
Staphylococcus aureus [2] = experiment: Bactericidal activity against Staphylococcus aureus ATCC 29213 at 16 ug/ml measured at 1 hr by time kill assay (reference value: 5.65 to 9.57); type: functional; conditions: dose 16 µg/ml
Staphylococcus aureus [3] = experiment: Bactericidal activity against Staphylococcus aureus ATCC 29213 at 16 ug/ml measured at 24 hrs by time kill assay (reference value: 5.65 to 9.57); type: functional; conditions: dose 16 µg/ml
Staphylococcus aureus [4] = experiment: Bactericidal activity against Staphylococcus aureus ATCC 29213 at 16 ug/ml measured at 6 hrs by time kill assay (reference value: 5.65 to 9.57); type: functional; conditions: dose 16 µg/ml
Staphylococcus aureus [5] = experiment: Bactericidal activity against Staphylococcus aureus ATCC 29213 at 16 ug/ml measured at 3 hrs by time kill assay (reference value: 5.65 to 9.57); type: functional; conditions: dose 16 µg/ml
Staphylococcus aureus [6] = experiment: Bactericidal activity against Staphylococcus aureus ATCC 29213 at 16 ug/ml measured at 0 hrs by time kill assay (reference value: 5.65 to 9.57); type: functional; conditions: dose 16 µg/ml
[7] = tested on: Staphylococcus epidermidis; experiment: Antibacterial activity against Staphylococcus epidermidis ATCC 35984 by broth microdilution method; type: functional
Staphylococcus aureus [8] = experiment: Bactericidal activity against Staphylococcus aureus ATCC 29213 at 32 ug/ml measured at 3 hrs by time kill assay (reference value: 5.65 to 9.57); type: functional; conditions: dose 32 µg/ml
[9] = tested on: Staphylococcus epidermidis; experiment: Induction of preformed biofilm disruption in Staphylococcus epidermidis ATCC 35984 at 64 ug/ml by crystal violet staining based assay relative to control; type: functional; conditions: dose 64.0 µg/ml
[10] = Cytotoxicity against human HaCaT cells assessed as reduction in cell viability at 32 ug/ml incubated for 24 hrs by MTT assay; type: cell-based; conditions: at 32 µg/mL, read-out: INH
Staphylococcus aureus [11] = experiment: Bactericidal activity against Staphylococcus aureus ATCC 29213 at 32 ug/ml measured at 0 hrs by time kill assay (reference value: 5.65 to 9.57); type: functional; conditions: dose 32 µg/ml
Staphylococcus aureus [12] = experiment: Bactericidal activity against Staphylococcus aureus ATCC 29213 at 32 ug/ml measured at 24 hrs by time kill assay (reference value: 5.65 to 9.57); type: functional; conditions: dose 32 µg/ml
Staphylococcus aureus [13] = experiment: Bactericidal activity against Staphylococcus aureus ATCC 29213 at 32 ug/ml measured at 1 hr by time kill assay (reference value: 5.65 to 9.57); type: functional; conditions: dose 32 µg/ml
Staphylococcus aureus [14] = experiment: Bactericidal activity against Staphylococcus aureus ATCC 29213 at 32 ug/ml measured at 6 hrs by time kill assay (reference value: 5.65 to 9.57); type: functional; conditions: dose 32 µg/ml
[15] = Cytotoxicity against human HaCaT cells assessed as reduction in cell viability at 16 ug/ml incubated for 24 hrs by MTT assay; type: cell-based; conditions: at 16 µg/mL, read-out: INH
Candida albicans = experiment: […] activity against Candida albicans ATCC 90028 by broth microdilution method; type: functional
[16] = tested on: Staphylococcus epidermidis; experiment: Inhibition of biofilm formation in Staphylococcus epidermidis ATCC 35984 at 64 ug/ml by crystal violet staining based assay relative to control; type: functional
[17] = tested on: Staphylococcus epidermidis; experiment: Inhibition of biofilm formation in Staphylococcus epidermidis ATCC 35984 at 8 to 32 ug/ml by crystal violet staining based assay relative to control; type: functional, organism-based; conditions: dose microg/ml 8-32

Compound: COc1ccc(CC2=C(Cc3ccc(OC)cc3)C(O)OC2=O)cc1 (configuration not stated)
- MIC (Pseudomonas aeruginosa): > 128 µg/mL
- MIC (Staphylococcus aureus [1]): > 128 µg/mL

Compound: COc1ccc(Cc2cocc2Cc2ccc(OC)cc2)cc1
- MIC (Pseudomonas aeruginosa): > 128 µg/mL
- MIC (Staphylococcus aureus [1]): > 128 µg/mL

Compound: COc1ccc(Cc2cocc2Cc2ccccc2O)cc1
- Activity (Staphylococcus aureus [2]): 2.47 log10CFU/ml
- Activity (Staphylococcus aureus [3]): 1.56 log10CFU/ml
- Activity (Staphylococcus aureus [4]): 1.61 log10CFU/ml
- MIC (Pseudomonas aeruginosa): > 128 µg/mL
- MIC (Staphylococcus aureus [1]): 16 µg/mL (≈ 54.4 µM)
- Activity (Staphylococcus aureus [5]): 1.94 log10CFU/ml
- Activity (Staphylococcus aureus [6]): 5.7 log10CFU/ml

Compound: Oc1ccc(Cc2cocc2Cc2ccccc2O)cc1
- MIC (Pseudomonas aeruginosa): > 128 µg/mL
- MIC (Staphylococcus aureus [1]): 64 µg/mL (≈ 228 µM)

Compound: Oc1ccc(Cc2cocc2Cc2ccc(O)cc2)cc1
- MIC [7]: 32 µg/mL (≈ 114 µM)
- Activity (Staphylococcus aureus [8]): 6.38 log10CFU/ml
- inhibition [9]: 25%
- cytotoxicity at 24 h, 32 ug/ml [10]: 40%
- MIC (Pseudomonas aeruginosa): > 128 µg/mL
- Activity (Staphylococcus aureus [11]): 5.74 log10CFU/ml
- Activity (Staphylococcus aureus [12]): 8.86 log10CFU/ml
- Activity (Staphylococcus aureus [13]): 5.77 log10CFU/ml
- MIC (Staphylococcus aureus [1]): 32 µg/mL (≈ 114 µM)
- Activity (Staphylococcus aureus [14]): 7.77 log10CFU/ml
- cytotoxicity at 24 h, 16 ug/ml [15]: 25%
- MIC (Candida albicans): 32 µg/mL (≈ 114 µM)
- inhibition at 64 µg/mL [16]: 33%
- inhibition [17]: inactive

Compound: CC(=O)Oc1ccc(Cc2cocc2Cc2ccc(OC(C)=O)cc2)cc1
- MIC (Pseudomonas aeruginosa): > 128 µg/mL
- MIC (Staphylococcus aureus [1]): > 128 µg/mL

Compound: COc1ccc(CC23OC2OC2OC23Cc2ccc(OC)cc2)cc1 (configuration not stated)
- MIC (Pseudomonas aeruginosa): > 128 µg/mL
- MIC (Staphylococcus aureus [1]): > 128 µg/mL

Compound: COc1ccc(CC2C(=O)OC3OC32Cc2ccc(OC)cc2)cc1 (configuration not stated)
- MIC (Pseudomonas aeruginosa): > 128 µg/mL
- MIC (Staphylococcus aureus [1]): > 128 µg/mL

Compound: O=C1OC(O)C(Cc2ccc(O)cc2)=C1Cc1ccc(O)cc1 (configuration not stated)
- MIC (Pseudomonas aeruginosa): > 128 µg/mL
- MIC (Staphylococcus aureus [1]): > 128 µg/mL

Compound: COc1ccc(Cc2cocc2Cc2ccc(O)cc2)cc1
- Activity (Staphylococcus aureus [2]): 2.2 log10CFU/ml
- MIC [7]: 16 µg/mL (≈ 54.4 µM)
- inhibition [9]: 25%
- Activity (Staphylococcus aureus [3]): 1.24 log10CFU/ml
- Activity (Staphylococcus aureus [4]): 1.35 log10CFU/ml
- MIC (Pseudomonas aeruginosa): > 128 µg/mL
- MIC (Staphylococcus aureus [1]): 16 µg/mL (≈ 54.4 µM)
- cytotoxicity at 24 h, 16 ug/ml [15]: 50%
- Activity (Staphylococcus aureus [5]): 1.6 log10CFU/ml
- MIC (Candida albicans): 16 µg/mL (≈ 54.4 µM)
- inhibition at 64 µg/mL [16]: 33%
- inhibition [17]: inactive
- Activity (Staphylococcus aureus [6]): 5.75 log10CFU/ml

Compound: C[C@@H]1[C@H](O)[C@@H](C)/C=C/C=C/C=C/C=C/C=C/C=C/C=C/[C@H](O[C@@H]2O[C@H](C)[C@@H](O)[C@H](N)[C@@H]2O)C[C@@H]2O[C@](O)(C[C@@H](O)C[C@@H](O)[C@H](O)CC[C@@H](O)C[C@@H](O)CC(=O)O[C@H]1C)C[C@H](O)[C@H]2C(=O)O [AMPHOTERICIN B]
- MIC (Candida albicans): 0.25 µg/mL (≈ 0.271 µM)

Compound: NC[C@H]1O[C@H](O[C@H]2[C@H](O)[C@@H](O[C@H]3O[C@H](CO)[C@@H](O)[C@H](N)[C@H]3O)[C@H](N)C[C@@H]2N)[C@H](N)C[C@@H]1O [TOBRAMYCIN]
- MIC (Pseudomonas aeruginosa): 4 µg/mL (≈ 8.56 µM)

Compound: COc1ccc(Cc2cocc2Cc2ccccc2OC)cc1
- MIC (Pseudomonas aeruginosa): > 128 µg/mL
- MIC (Staphylococcus aureus [1]): > 128 µg/mL
